We go through 4 compounds from article PMC6194148, “Phenylindanes in Brewed Coffee Inhibit Amyloid-Beta and Tau Aggregation” (Frontiers in Neuroscience, 2018).

Molecules are shown by their SMILES. Read-outs that look alike come from different tables or passages of the source.

What all share (type): biochemical
Assay [1] deals with T1, tau (tau40) (Homo sapiens, UniProt P10636).
T1 construct: gene MAPT; Human tau40, tag-free, expressed in E. coli
Put plainly: ThS fluorescence fibrillization assay (heparin-containing buffer); […] inhibition at […], […] at […]. The conditions noted are these: read-out: Tau fibril inhibition (%).

Assay [2] deals with T2, amyloid-beta (Aβ) (Homo sapiens, UniProt P05067). In words: Aβ oligomerization ELISA (biotinylated Aβ[…]-42); also ThT fibrillization, […] inhibition at […]. Also on record: gene APP; biotinylated Aβ1-42 (oligomerization); Aβ1-40 (fibrillization).
Target sequence in this assay (P05067 672-713): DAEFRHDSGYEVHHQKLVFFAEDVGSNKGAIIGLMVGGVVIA
The target in assay [3] is T2, amyloid-beta (Aβ). In words: ThT fluorescence fibrillization assay at […]; no inhibition of Aβ oligomerization. Set-up: gene APP; Aβ1-40. The conditions noted are these: read-out: Aβ fibril inhibition (%).
Target sequence in this assay (P05067 672-711): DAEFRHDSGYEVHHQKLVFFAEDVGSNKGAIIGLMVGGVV
Assay [4] deals with T2, amyloid-beta (Aβ). Put plainly: Aβ oligomerization ELISA (biotinylated Aβ[…]-42); also ThT fibrillization, […] inhibition at […]. Also on record: gene APP; biotinylated Aβ1-42 (oligomerization); Aβ1-40 (fibrillization). This is another data set of the same source.
Target sequence in this assay (P05067 672-713): as the sequence (P05067 672-713) above

T1 sequence (P10636 2-441 isoform P10636-8): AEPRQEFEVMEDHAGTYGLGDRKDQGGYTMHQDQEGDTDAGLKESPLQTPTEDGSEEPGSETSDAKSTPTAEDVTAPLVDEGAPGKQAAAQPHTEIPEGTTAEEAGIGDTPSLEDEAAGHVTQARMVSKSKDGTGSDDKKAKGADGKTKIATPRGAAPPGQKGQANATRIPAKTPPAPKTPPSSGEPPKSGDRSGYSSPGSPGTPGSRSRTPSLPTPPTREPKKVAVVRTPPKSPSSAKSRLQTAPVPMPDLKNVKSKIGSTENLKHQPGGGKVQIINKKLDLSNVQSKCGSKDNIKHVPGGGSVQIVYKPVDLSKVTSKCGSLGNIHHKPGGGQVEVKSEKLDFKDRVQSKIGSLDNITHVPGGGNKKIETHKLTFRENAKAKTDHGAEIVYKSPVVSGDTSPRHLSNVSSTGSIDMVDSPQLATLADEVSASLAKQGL

As to `CC1CC(c2ccc(O)c(O)c2)c2cc(O)c(O)cc21` (mixture of isomers) [compound 6, Phenylindane], the inhibition at 100 µM in assay [1] was determined as 95.2 ± 1.7%. Also, the IC50 in assay [2] was determined as 42.1 ± 1.4 µM.

In the case of `O=C(/C=C/c1ccc(O)c(O)c1)O[C@@H]1C[C@](O)(C(=O)O)C[C@@H](O)[C@H]1O` [compound 2, Chlorogenic acid], the inhibition at 100 µM in assay [3] was 97.7 ± 0.7%.

`O=C(O)/C=C/c1ccc(O)c(O)c1` [compound 4, Caffeic acid]: the inhibition at 100 µM in assay [3] worked out at 99.4 ± 0.9%.

For the compound `O=c1c(O)c(-c2ccc(O)c(O)c2)oc2cc(O)cc(O)c12` [compound 5, Quercetin], in assay [4], the IC50 was determined as 10.3 ± 1.1 µM.
